{"source": "ChEMBL document CHEMBL2424514", "about": "“Prediction of glucagon receptor antagonist activities of some substituted imidazoles using combined radial basis function neural network and density functional theory” (Med Chem Res, 2013)"}
{"target": "Glucagon receptor (Homo sapiens, UniProt P47871)", "sequence (P47871 whole entry)": "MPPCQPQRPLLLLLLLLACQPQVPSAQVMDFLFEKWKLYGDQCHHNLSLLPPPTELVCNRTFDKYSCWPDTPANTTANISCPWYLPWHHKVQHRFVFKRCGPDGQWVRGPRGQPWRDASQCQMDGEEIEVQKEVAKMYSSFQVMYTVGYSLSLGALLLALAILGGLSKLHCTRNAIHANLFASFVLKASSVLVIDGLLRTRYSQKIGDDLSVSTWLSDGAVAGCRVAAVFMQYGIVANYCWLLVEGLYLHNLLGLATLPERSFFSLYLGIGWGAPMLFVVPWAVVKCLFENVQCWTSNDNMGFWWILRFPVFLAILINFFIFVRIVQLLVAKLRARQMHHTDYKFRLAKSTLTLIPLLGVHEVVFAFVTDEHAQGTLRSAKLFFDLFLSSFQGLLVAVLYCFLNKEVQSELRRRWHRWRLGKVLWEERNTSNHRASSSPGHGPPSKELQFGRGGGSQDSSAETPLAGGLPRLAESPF", "assay": "Inhibition of human glucagon receptor expressed in CHO cell membranes by radioligand displacement assay", "type": "cell-based", "units": {"IC50": "nM"}}
{"smiles": "Cc1cc(-c2[nH]c(-c3ccc(Cl)cc3)nc2-c2ccc(F)cc2)ccn1", "IC50": 50}
{"smiles": "Fc1ccc(-c2[nH]c(-c3cccc4ccccc34)nc2-c2ccncc2)cc1", "IC50": 340}
{"smiles": "CSc1ccc(-c2nc(-c3ccc(F)cc3)c(-c3ccncc3)n2C)cc1", "IC50": 521}
{"smiles": "Clc1ccc(-c2nc(-c3ccncc3)c(-c3ccc(Oc4ccccc4)cc3)[nH]2)cc1", "IC50": 250}
{"smiles": "CSc1ccc(-c2nc(-c3ccncc3)c(-c3ccc(F)cc3)n2C)cc1", "IC50": 861}
{"smiles": "Cc1cnccc1-c1nc(-c2ccc(Cl)cc2)[nH]c1-c1ccc(F)cc1", "IC50": 20}
{"smiles": "N#Cc1ccc(-c2nc(-c3ccncc3)c(-c3ccc(F)cc3)[nH]2)cc1", "IC50": 210}
{"smiles": "Clc1ccc(-c2nc(-c3ccc(-c4ccccc4)cc3)c(-c3ccncc3)[nH]2)cc1", "IC50": 3300}
{"smiles": "Fc1ccc(-c2[nH]c(-c3ccc(Br)o3)nc2-c2ccncc2)cc1", "IC50": 190}
{"smiles": "Clc1ccc(-c2nc(-c3ccc(I)cc3)c(-c3ccncc3)[nH]2)cc1", "IC50": 140}
{"smiles": "Brc1ccc(-c2nc(-c3ccncc3)c(-c3ccccc3)[nH]2)cc1", "IC50": 40.1}
{"smiles": "Fc1ccc(-c2[nH]c(-c3ccc(-c4ccccc4)cc3)nc2-c2ccncc2)cc1", "IC50": 301}
{"smiles": "Fc1ccc(-c2[nH]c(-c3ccccc3Br)nc2-c2ccncc2)cc1", "IC50": 90.2}
{"smiles": "Cc1ccc(-c2nc(-c3ccc(F)cc3)c(-c3ccncc3)[nH]2)cc1", "IC50": 90.2}
{"smiles": "Brc1ccc(-c2nc(-c3ccccc3)c(-c3ccccc3)[nH]2)cc1", "IC50": 2200}
{"smiles": "Fc1ccc(-c2nc(-c3ccc(Cl)cc3)[nH]c2-c2ccncc2)cc1", "IC50": 80.2}
{"smiles": "CSc1ccc(-c2nc(-c3ccc(F)cc3)c(-c3ccncc3)o2)cc1", "IC50": 931}
{"smiles": "Fc1ccc(-c2nc(-c3ccc(Br)cc3)[nH]c2-c2ccncc2)cc1", "IC50": 160}
{"smiles": "Clc1ccc(-c2nc(-c3ccncc3)c(-c3cccc(Oc4ccccc4)c3)[nH]2)cc1", "IC50": 220}
{"smiles": "Fc1ccc(-c2[nH]c(-c3cccc(Br)c3)nc2-c2ccncc2)cc1", "IC50": 150}
{"smiles": "Oc1ccc(-c2[nH]c(-c3ccc(Br)cc3)nc2-c2ccccc2)cc1", "IC50": 100}
{"smiles": "CCCOc1ccc(-c2[nH]c(-c3ccc(Cl)cc3)nc2-c2ccncc2)c(OCCC)c1", "IC50": 2400}
{"smiles": "Fc1ccc(-c2[nH]c(CCc3ccccc3)nc2-c2ccncc2)cc1", "IC50": 120}
{"smiles": "Clc1ccc(-c2nc(-c3ccncc3)c(-c3ccc(Cl)cc3)[nH]2)cc1", "IC50": 23}
{"smiles": "CC(C)c1ccc(-c2nc(-c3ccc(F)cc3)c(-c3ccncc3)[nH]2)cc1", "IC50": 281}
{"smiles": "Fc1ccc(-c2[nH]c(-c3ccc(I)cc3)nc2-c2ccncc2)cc1", "IC50": 100}
{"smiles": "Clc1ccc(-c2nc(-c3ccncc3)c(-c3ccccc3Oc3ccccc3)[nH]2)cc1", "IC50": 150}
{"smiles": "Fc1ccc(-c2[nH]c(-c3ccc(Br)s3)nc2-c2ccncc2)cc1", "IC50": 110}
{"smiles": "Clc1ccc(-c2nc(-c3cccc(-c4ccccc4)c3)c(-c3ccncc3)[nH]2)cc1", "IC50": 590}
